# Data published in patent US20040009904A1, “APL immunoreactive peptides, conjugates thereof and methods of treatment for aPL antibody-mediated pathologies” (priority 1995, published 2004).
# “And” between values parts separate entries of the source, which are not always exact repeats. Identical values can stand only once. Bridge positions count the residues as written; N and C are the ends. Peptide text beside a SMILES is read from it.
# Assays:
# [1] = molecular target: ACA-6501; assay: Competitive binding peptide ACA ELISA, cardiolipin/β2-GPI-coated plates; design: species or system human
# Method in brief: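 Monomeric peptides at several amounts were preincubated ~1 h at RT with ACA-6501 serum (final 1:400), then added to cardiolipin-coated, fish-gelatin-blocked plates with β2-GPI for 1 h at RT. Bound IgG was detected with alkaline phosphatase anti-human IgG and phenolphthalein monophosphate, read at 550 nm. IC50 was the peptide amount at half-maximal absorbance.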
# [2] = test system: ACA; assay: Structure Activity Relationship of the Crossreactive ACA Epitope (relative activity); assay type: binding, human; settings: LJP 688 = 100
# Excerpt: Peptide 6641/3G3 (LJP 688) was subjected to a number of analyses. The analyses included truncation at both the N-terminus and the C-terminus, disulfide substitution, substitution of alanine and glycine for amino acids in positions 2 through 8, substitution of branched aliphatic amino acids in positions 2, 4, 5 and 8, substitution of amino acids affecting conformation of the peptide, including substitution of α-methyl amino acids, substitution of basic amino acids in position 7, substitution of D-amino acids in positions 2 through 9, and the substitution of N-α-methyl amino acids in positions 1 through 9.
# [3] = molecular target: ACA-6635; assay: Competitive binding peptide ACA ELISA, cardiolipin/β2-GPI-coated plates; design: species or system human; settings: ACA serum 6635 RS
# [4] = test system: ACA antibodies; assay: Competitive binding peptide ACA ELISA, cardiolipin/β2-GPI-coated plates, panel of ACA antibodies (average); design: species or system human
# Description: (§1) A variation of this assay uses microtitration plates coated with human β2-glycoprotein I/cardiolipin (β2-GPI/CL) instead of tetravalent peptide and tests the ability of monomeric peptides to block the binding of aPL antibody to the epitope(s) on β2-GPI/CL. In this assay, IgG-depleted human serum at an optimized concentration is used as a source of β2-GPI. The monomeric peptides at several concentrations are incubated with an optimized concentration of aPL antibody in a manner analogous to the assay which employs tetravalent peptide as a plate substrate. Following the incubation of aPL/peptide in (β2-GPI/CL) plates, antibody binding and the peptide concentration required for 50% inhibition is determined at half-maximal absorbance as in the tetravalent assay.
# (§2) Peptide sequences for all five peptides immediately follow the table. All were tested using the competitive binding peptide ACA ELISA using CL/β2-GPI plates as described herein.
# As noted in Section I above, one synthetic peptide, 6641/3G3 was tested against several high titer ACA antisera. This peptide appeared to be crossreactive with the vast majority of ACA antisera tested as illustrated in FIG. 14.
# (§3) (B) Immulon I® 96-well, flat-bottom, polystyrene microtitration plates (Dynatech Laboratories, Inc., Chantilly, Va.) were coated with 30 μL/well of cardiolipin (CL, 50 μg; Sigma Chemical Co., St. Louis, Mo.) in ethanol. Two control wells received 30 μL ethanol only. After overnight evaporation at 4° C., each well was blocked with 200 μL of 5% (w/v) fish gelatin in PBS for 2 hours at RT.
# (§4) The CL/β2-GPI microtitration plate was washed 5 times with TBS and 100 μL aliquots in duplicate from Eppendorf tubes #1, 2, 3, and 4 containing the antibody-peptide (or no peptide mixtures) were added to the wells. A volume of 100 μL from tube #4 was added to the duplicate control wells containing no cardiolipin. The microtitration plate was incubated for 1 hour at RT with agitation at 40 rpm in an orbital shaker (American Scientific, Rotator V), washed 5 times with TBS and then 100 μL of 1:1000 goat anti-human IgG alkaline phosphatase conjugate (Zymed, Cat No. 62-8422) in 0.5% (w/v) BSA-TBS was added. Following incubation for 1 hour at RT, the microtitration plate was again washed 5 times with TBS and the colorimetric enzyme detection developed by adding 100 μL of PMPP solution (7.8 g phenolphthalein monophosphate plus 69.5 g of 2-amino-2-methyl-1-propanol in 100 mL water stock solution diluted 1:26 with water). After 21 minutes, the reaction was stopped by adding 50 μL of 0.2 M Na2HPO4 (Mallinckrodt) to each well. Absorbance at 550 nm was read in a microplate reader (Bio-Tek Instruments, Model EL 311). The amount of peptide that inhibited ACA-6501 binding by 50%, the IC50, was calculated from the graph at the intersection of half-maximal absorbance with amount of peptide added.
# [5] = molecular target: ACA-6641; assay: Competitive binding peptide ACA ELISA, cardiolipin/β2-GPI-coated plates; design: species or system human
# Description: as §1, §2, §3, §4
# [6] = molecular target: ACA-6903; assay: as above; design: species or system human
# Description: as §1, §2, §3, §4
# [7] = molecular target: ACA-7004; assay: as above; design: species or system human
# Description: as §1, §2, §3, §4
# [8] = molecular target: ACA-6644; assay: as above; design: species or system human
# Description: as §1, §2, §3, §4
# [9] = molecular target: ACA-6701; assay: as above; design: species or system human
# Description: as §1, §2, §3, §4
# [10] = molecular target: ACA-6626; assay: as above; design: species or system human
# Description: as §1, §2, §3, §4
# [11] = molecular target: ACA-7005; assay: as above; design: species or system human
# Description: as §1, §2, §3, §4
# [12] = molecular target: ACA-6638; assay: as above; design: species or system human
# Description: as §1, §2, §3, §4
# [13] = test system: ACA-6641; assay: Phage-capture ELISA; assay type: binding, human; settings: ACA-6641 screen
# Description: The phage-capture ELISA consists of the following steps. Microtitration wells are coated with aPL antibody and phage clones are added as in the micropanning assay. Unbound phage are washed away and the amount of bound phage is quantitated using an enzyme-conjugated goat antiserum which binds the major coat protein of the phage. Phage screened using phage-capture ELISA react with many aPL antibodies and provide a strong signal in subsequent ELISA assays. This intermediate level of sensitivity allows for greater efficiency in the peptide synthesis effort since few micropanning-positive phage are phage-capture ELISA positive. As a result, peptides synthesized from positive phage-capture ELISA phage are generally immunoreactive.
# AffACA-6641 was isolated from 4 mL of plasma taken from patient number 6641. AffACA-6641 (10 μg) was incubated with the pooled p-III phage libraries in a final volume of 100 μL as described previously. Following four rounds of biopanning, 45 clones from the 3rd and 4th rounds were tested by micropanning. Of the 45, 23 scored negative. The 3rd round phage yielded two clones that scored 4+, two that scored 3+ and two that scored 2+. From the 4th round, one clone scored 4+, one scored 3+ and three scored 2+. […] Four base DNA sequencing gave the following translated peptide sequence: […]
# [14] = peptide 1 mg/mL, affinity purified antibody
smiles,measurement,setting,value
"CC(C)C[C@@H]1NC(=O)[C@@H](NC(=O)[C@@H]2CCCN2C(=O)CNC(=O)[C@H](C)N)CSSC[C@@H](C(=O)N2CCC[C@H]2C(=O)NCC(=O)O)NC(=O)[C@H](CC(C)C)NC(=O)[C@H](CCCCN)NC(=O)CNC(=O)[C@H](CC(C)C)NC(=O)[C@H](C(C)C)NC(=O)CNC1=O [LJP 688, AGP-CLGVLGKLC-PG] (H-AGPCLGVLGKLCPG-OH; disulfide 4-12)",IC50 for peptide LJP 688,"[1]; ACA serum 6501 RS, RFL",890 µg/mL and 1100 µg/mL
same,with ACA 6501 150 ug/mL,"[1]; Optimization of Peptide 3G3, inf = no 50% inhibition",850 µg/mL
same,"Percent Inhibition of AffACA by Peptide Monomers, 6501",[1]; [14],86%
same,Relative Activity,[2],100
same,IC50 for peptide LJP 688,[3],1000 µg/mL
same,"complete inhibition, cross-reactivity with 10 of 10 ACA antibodies",[4]; at 1.8 mg/mL,> 80%
same,"IC50 for peptide LJP 688, mean ± sd",[4]; mean over ten ACA sera,860 ± 160 µg/mL
same,"Percent Inhibition of AffACA by Peptide Monomers, Ave.","[4]; peptide 1 mg/mL, average over nine antibodies",97%
same,IC50 for peptide LJP 688,[5]; ACA serum 6641 RS,890 µg/mL and 510 µg/mL
same,"Percent Inhibition of AffACA by Peptide Monomers, 6641",[5]; [14],93%
same,IC50 for peptide LJP 688,[6]; ACA serum 6903 RS,800 µg/mL
same,"Percent Inhibition of AffACA by Peptide Monomers, 6903",[6]; [14],100%
same,IC50 for peptide LJP 688,[7]; ACA serum 7004 RFL,670 µg/mL
same,"Percent Inhibition of AffACA by Peptide Monomers, 7004",[7]; [14],100%
same,IC50 for peptide LJP 688,[8]; ACA serum 6644 RS,760 µg/mL
same,"Percent Inhibition of AffACA by Peptide Monomers, 6644",[8]; [14],100%
same,IC50 for peptide LJP 688,[9]; ACA serum 6701 RS,1070 µg/mL
same,"Percent Inhibition of AffACA by Peptide Monomers, 6701",[9]; [14],100%
same,IC50 for peptide LJP 688,[10]; ACA serum 6626 RS,1090 µg/mL
same,"Percent Inhibition of AffACA by Peptide Monomers, 6626",[10]; [14],100%
same,IC50 for peptide LJP 688,[11]; ACA serum 7005 RFL,750 µg/mL
same,"Percent Inhibition of AffACA by Peptide Monomers, 7005",[11]; [14],95%
same,IC50 for peptide LJP 688,[12]; ACA serum 6638 RS,810 µg/mL
same,"Percent Inhibition of AffACA by Peptide Monomers, 6638",[12]; [14],100%
same,result in the phage-capture ELISA,[13],strongly positive
